System: HLA-A*11:01-restricted antigen-specific CD8+ T cells in patient's PBMC
Test: Highly multiplexed combinatorial pMHC tetramer staining with mass cytometry (epitope mapping, frequency of antigen-specific CD8+ T cells)
[1] = Acute resolved (R) patients, patients with detected tetramer+ CD8+ T cells (frequency > 0.002%) / patients in the group, per epitope cluster
[2] = Inactive Carrier (InA) CHB patients, patients with detected tetramer+ CD8+ T cells (frequency > 0.002%) / patients in the group, per epitope cluster
[3] = Immune Active (IA) patients, donors with tetramer+ CD8+ T cell frequency > 0.002% / donors tested
[4] = Immune Tolerant (IT) patients, donors with tetramer+ CD8+ T cell frequency > 0.002% / donors tested
[5] = Inactive Carrier (InA) patients, donors with tetramer+ CD8+ T cell frequency > 0.002% / donors tested
[6] = acute resolved (R) patients, donors with tetramer+ CD8+ T cell frequency > 0.002% / donors tested
[7] = patients with detected epitope-specific CD8+ T cells / patients tested, Immune Tolerant (IT) group, Freq > 0.002%
[8] = patients with detected epitope-specific CD8+ T cells / patients tested, Inactive Carrier (InA) group, Freq > 0.002%
[9] = patients with detected epitope-specific CD8+ T cells / patients tested, acute resolved (R) group, Freq > 0.002%
[10] = patients with detected epitope-specific CD8+ T cells / patients tested, Immune Active (IA) group, Freq > 0.002%
[11] = Immune Active (IA) CHB patients, patients with detected tetramer+ CD8+ T cells (frequency > 0.002%) / patients in the group, per epitope cluster
[12] = Immune Tolerant (IT) CHB patients, patients with detected tetramer+ CD8+ T cells (frequency > 0.002%) / patients in the group, per epitope cluster

Sequence: QTSERHGDK
- Hits (Freq > 0.002%) R [1]: 1/12
- Hits (Freq > 0.002%) InA [2]: 1/13

Sequence: QVLPKVLHK
- Hits (Freq > 0.002%) IA [3]: 1/12

Sequence: RGNTRVSWPK
- Hits (Freq > 0.002%) IA [3]: 2/12
- Hits (Freq > 0.002%) IT [4]: 1/8
- Hits (Freq > 0.002%) InA [5]: 1/13
- Hits (Freq > 0.002%) R [6]: 1/12

Sequence: RIINNQHR
- Hits (Freq > 0.002%) IA [3]: 1/12
- Hits (Freq > 0.002%) R [6]: 1/12

Sequence: RSQSPRRRRSK
- Hits (Freq > 0.002%) IT [7]: 8/8
- Hits (Freq > 0.002%) InA [8]: 6/13
- Hits (Freq > 0.002%) R [9]: 6/12

Sequence: RTQSPRRRR
- Hits (Freq > 0.002%) IA [10]: 6/12
- Hits (Freq > 0.002%) IT [7]: 1/8
- Hits (Freq > 0.002%) InA [8]: 5/13
- Hits (Freq > 0.002%) R [9]: 2/12

Sequence: RTTWSIHAK
- Hits (Freq > 0.002%) IA [10]: 5/12
- Hits (Freq > 0.002%) IT [7]: 2/8
- Hits (Freq > 0.002%) InA [8]: 3/13
- Hits (Freq > 0.002%) R [9]: 3/12

Sequence: RVTGGVFLVDK
- Hits (Freq > 0.002%) IA [3]: 1/12

Sequence: SFSFGGFTFK
- Hits (Freq > 0.002%) IA [10]: 2/12
- Hits (Freq > 0.002%) InA [8]: 2/13
- Hits (Freq > 0.002%) R [9]: 1/12

Sequence: SQIGAGVYK
- Hits (Freq > 0.002%) IA [10]: 3/12
- Hits (Freq > 0.002%) IT [7]: 1/8
- Hits (Freq > 0.002%) InA [8]: 2/13
- Hits (Freq > 0.002%) R [9]: 1/12

Sequence: SSAGPCALR
- Hits (Freq > 0.002%) InA [5]: 2/13

Sequence: SSARSQSER
- Hits (Freq > 0.002%) InA [5]: 1/13

Sequence: SSCLHQPAVRK
- Hits (Freq > 0.002%) InA [2]: 1/12

Sequence: SSCSSCPLSK
- Hits (Freq > 0.002%) IT [7]: 6/8
- Hits (Freq > 0.002%) R [9]: 8/12

Sequence: STFHQALLDPR
- Hits (Freq > 0.002%) IA [11]: 1/12

Sequence: STISSILSK
- Hits (Freq > 0.002%) IA [11]: 1/12
- Hits (Freq > 0.002%) InA [2]: 1/13

Sequence: STLPETAVVRR
- Hits (Freq > 0.002%) IA [3]: 4/12
- Hits (Freq > 0.002%) InA [5]: 7/13
- Hits (Freq > 0.002%) R [6]: 9/12

Sequence: STNRQSGRK
- Hits (Freq > 0.002%) R [1]: 1/12
- Hits (Freq > 0.002%) IA [11]: 7/12
- Hits (Freq > 0.002%) IT [12]: 5/8
- Hits (Freq > 0.002%) InA [2]: 4/13

Sequence: STQVSWPK
- Hits (Freq > 0.002%) IT [4]: 2/8
- Hits (Freq > 0.002%) R [6]: 1/12

Sequence: STVPCFNPK
- Hits (Freq > 0.002%) R [1]: 1/12

Sequence: SVLGPISGHVLK
- Hits (Freq > 0.002%) InA [8]: 2/13

Sequence: SVQPTFSVQR
- Hits (Freq > 0.002%) IA [10]: 3/12
- Hits (Freq > 0.002%) IT [7]: 2/8
- Hits (Freq > 0.002%) InA [8]: 4/13
- Hits (Freq > 0.002%) R [9]: 1/12

Sequence: SVQRNLPFER
- Hits (Freq > 0.002%) IA [10]: 4/12
- Hits (Freq > 0.002%) IT [7]: 4/8
- Hits (Freq > 0.002%) InA [8]: 6/13
- Hits (Freq > 0.002%) R [9]: 3/12

Sequence: SVVRRAFPH
- Hits (Freq > 0.002%) IA [3]: 3/12
- Hits (Freq > 0.002%) IT [4]: 1/8
- Hits (Freq > 0.002%) InA [5]: 2/13

Sequence: TSGSPIIDK
- Hits (Freq > 0.002%) IT [7]: 1/8

Sequence: TSMFPSCCCTK
- Hits (Freq > 0.002%) IA [11]: 2/12
- Hits (Freq > 0.002%) IT [12]: 1/8
- Hits (Freq > 0.002%) InA [2]: 1/13

Sequence: TTDLEAYFK
- Hits (Freq > 0.002%) IA [10]: 1/12
- Hits (Freq > 0.002%) InA [8]: 3/13
- Hits (Freq > 0.002%) R [9]: 1/12

Sequence: TTKRDLGMSK
- Hits (Freq > 0.002%) IA [10]: 2/12
- Hits (Freq > 0.002%) IT [7]: 1/8

Sequence: TTSTGPCK
- Hits (Freq > 0.002%) R [1]: 1/12
- Hits (Freq > 0.002%) IA [11]: 1/12

Sequence: TVMDIISRR
- Hits (Freq > 0.002%) IT [7]: 2/8

Sequence: TVNAHQVLPK
- Hits (Freq > 0.002%) IA [3]: 3/13
- Hits (Freq > 0.002%) IT [4]: 1/12
- Hits (Freq > 0.002%) R [6]: 2/12

Sequence: TVNETRRLK
- Hits (Freq > 0.002%) IA [11]: 2/12
- Hits (Freq > 0.002%) IT [12]: 1/8
- Hits (Freq > 0.002%) InA [2]: 2/13

Sequence: TVNHYFQTR
- Hits (Freq > 0.002%) IA [11]: 4/12
- Hits (Freq > 0.002%) IT [12]: 5/8
- Hits (Freq > 0.002%) InA [2]: 5/13

Sequence: TVPCFNPK
- Hits (Freq > 0.002%) InA [2]: 1/13

Sequence: TVRAFSRAYHHRINR
- Hits (Freq > 0.002%) R [9]: 1/12

Sequence: TVSAISSILSK
- Hits (Freq > 0.002%) R [1]: 1/12
- Hits (Freq > 0.002%) IA [11]: 2/12
- Hits (Freq > 0.002%) IT [12]: 1/8

Sequence: VSAISSILSK
- Hits (Freq > 0.002%) IA [11]: 1/12

Sequence: VSLMLLYK
- Hits (Freq > 0.002%) R [6]: 1/12

Sequence: VTGGVFLVDK
- Hits (Freq > 0.002%) IA [3]: 1/12

Sequence: VTKYLPLDK
- Hits (Freq > 0.002%) R [1]: 2/12
- Hits (Freq > 0.002%) IT [12]: 1/8
- Hits (Freq > 0.002%) InA [2]: 3/13

Sequence: YVNVNMGLK
- Hits (Freq > 0.002%) IA [10]: 1/12
- Hits (Freq > 0.002%) R [9]: 1/12

Sequence: YVSLLLLYK
- Hits (Freq > 0.002%) IA [3]: 2/12
- Hits (Freq > 0.002%) IT [4]: 2/8
- Hits (Freq > 0.002%) InA [5]: 3/13
- Hits (Freq > 0.002%) R [6]: 1/12
